Among the data in ChEMBL document CHEMBL3102764, “Discovery of 3-(trifluoromethyl)-1H-pyrazole-5-carboxamide activators of the M2 isoform of pyruvate kinase (PKM2)” (Bioorg Med Chem Lett, 2014) are Activity and AC50 values, retold here.

The target in experiment [1] is T1, Pyruvate kinase PKM (Homo sapiens, UniProt P14618). Nature of the experiment: Activation of PKM2 in human A549 cells. It counts as cell-based.
Target sequence in this assay (P14618 2-531 limits assumed): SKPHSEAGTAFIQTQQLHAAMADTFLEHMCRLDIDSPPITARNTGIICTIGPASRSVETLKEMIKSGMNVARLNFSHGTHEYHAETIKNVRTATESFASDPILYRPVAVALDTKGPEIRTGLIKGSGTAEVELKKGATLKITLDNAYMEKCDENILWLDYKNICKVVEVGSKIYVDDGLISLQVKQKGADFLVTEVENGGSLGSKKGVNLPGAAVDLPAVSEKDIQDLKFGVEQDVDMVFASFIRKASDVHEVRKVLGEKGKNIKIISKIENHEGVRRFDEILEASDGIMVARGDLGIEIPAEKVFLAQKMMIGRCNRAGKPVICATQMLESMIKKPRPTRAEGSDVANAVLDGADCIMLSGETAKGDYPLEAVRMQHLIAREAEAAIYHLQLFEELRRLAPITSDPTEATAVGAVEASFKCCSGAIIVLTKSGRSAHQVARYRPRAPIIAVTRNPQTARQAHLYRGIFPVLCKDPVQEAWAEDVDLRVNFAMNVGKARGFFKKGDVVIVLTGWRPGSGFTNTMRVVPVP
In experiment [2] the target is T1, Pyruvate kinase PKM. As to the kind of experiment: Activation of PKM2 (unknown origin) assessed as PEP conversion to pyruvate measured as concentration required for 50% activation by luminescence assay.
Target sequence in this assay (P14618 whole entry): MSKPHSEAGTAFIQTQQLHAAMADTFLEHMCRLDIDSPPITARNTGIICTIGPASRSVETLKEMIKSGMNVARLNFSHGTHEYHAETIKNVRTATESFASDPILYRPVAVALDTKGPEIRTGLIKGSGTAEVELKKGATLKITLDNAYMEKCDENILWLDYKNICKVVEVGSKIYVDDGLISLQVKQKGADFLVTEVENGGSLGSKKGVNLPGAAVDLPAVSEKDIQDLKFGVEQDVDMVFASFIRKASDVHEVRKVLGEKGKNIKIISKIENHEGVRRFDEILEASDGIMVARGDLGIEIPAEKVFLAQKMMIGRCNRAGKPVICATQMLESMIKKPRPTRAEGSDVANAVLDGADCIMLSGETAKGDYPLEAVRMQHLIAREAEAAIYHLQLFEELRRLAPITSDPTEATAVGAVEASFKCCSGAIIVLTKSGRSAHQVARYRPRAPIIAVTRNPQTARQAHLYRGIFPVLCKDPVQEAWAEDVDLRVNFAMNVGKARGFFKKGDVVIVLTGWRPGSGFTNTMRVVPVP
Experiment [3] addresses T1, Pyruvate kinase PKM. Nature of the experiment: Activation of PKM2 in human NCI-H1299 cells. In kind it is cell-based.
Target sequence in this assay (P14618 2-531 limits assumed): as the sequence (P14618 2-531 limits assumed) above

The term AC50 denotes the midpoint of the concentration-response curve, whichever way the signal moves. Regarding `O=C(c1cc(Br)n[nH]1)N(Cc1ccc(O)cc1F)CC1CCC1`, the results for the Activity at Pyruvate kinase PKM [1] and on Pyruvate kinase PKM [3] were 0.06 µM and 0.055 µM, respectively. For the same molecule, the AC50 on Pyruvate kinase PKM [2] (read-out: AC50) worked out at 0.034 µM.

For `O=C(c1cc(Br)c[nH]1)N(Cc1ccccc1)CC1CCCC1`, the AC50 entry on Pyruvate kinase PKM [2] is recorded as “Not Active”.

As for `O=C(c1cc(Br)c[nH]1)N(Cc1ccccc1)CC1CCC1`, the concentration at half-maximal activity (AC50) on Pyruvate kinase PKM [2] (read-out: AC50) turned out to be 2.3 µM.

Consider `O=C(c1cc(Br)c[nH]1)N(Cc1ccc(F)cc1)CC1CCC1`, for which the AC50 on Pyruvate kinase PKM [2] (read-out: AC50) was found to be 12.1 µM.

For `COc1ccc(CN(CC2CCC2)C(=O)c2cc(Br)c[nH]2)cc1`, the AC50 entry on Pyruvate kinase PKM [2] is “Not Active”.

For the molecule `Nc1cc(C(=O)N(Cc2ccc(O)cc2F)CC2CCC2)[nH]n1`, the AC50 on Pyruvate kinase PKM [2] (read-out: AC50) is more than 30 µM.

With `O=C(c1cc(Cl)n[nH]1)N(Cc1ccc(O)cc1F)CC1CCC1`, the Activity on Pyruvate kinase PKM [1] was determined as 0.45 µM; on Pyruvate kinase PKM [3] it was 0.3 µM.

Consider `O=C(c1cc(Br)c[nH]1)N(Cc1ccc(O)cc1)CC1CCC1`, for which the AC50 at Pyruvate kinase PKM [2] (read-out: AC50) was 1.71 µM.

For the molecule `O=C(c1cc(Br)c[nH]1)N(Cc1ccccc1F)CC1CCC1`, the AC50 on Pyruvate kinase PKM [2] (read-out: AC50) was 3.9 µM.

In the case of `O=C(c1cc(Br)n[nH]1)N(Cc1cccc2[nH]cnc12)CC1CCC1`, the Activity is 1.99 µM on Pyruvate kinase PKM [1] and 1.42 µM on Pyruvate kinase PKM [3].

For `O=C(c1cc(Br)c[nH]1)N(Cc1cccc(O)c1)CC1CCC1`, the AC50 on Pyruvate kinase PKM [2] (read-out: AC50) worked out at 3.03 µM.

Consider `O=C(c1cc(Br)c[nH]1)N(Cc1ccccc1)CC1CCCCC1`, for which the AC50 result at Pyruvate kinase PKM [2] is recorded as “Not Active”.

Take `O=C(c1cc(Br)c[nH]1)N(Cc1cccc(F)c1)CC1CCC1`: the AC50 on Pyruvate kinase PKM [2] (read-out: AC50) was found to be 3.85 µM.

As to `O=C(c1cc(Br)c[nH]1)N(Cc1ccc(O)cc1F)CC1CCC1`, the AC50 at Pyruvate kinase PKM [2] (read-out: AC50) came to 0.75 µM.

In the case of `O=C(NCc1ccccc1)c1cc(Br)c[nH]1`, the half-maximal activity concentration (AC50) on Pyruvate kinase PKM [2] (read-out: AC50) was 36 µM.

In the case of `O=C(c1cc(C(F)(F)F)n[nH]1)N(Cc1cccc2[nH]ccc12)CC1CCC1`, the Activity on Pyruvate kinase PKM [1] was 0.308 µM; on Pyruvate kinase PKM [3] it was 0.364 µM.

As to `O=C(c1cc(Cl)n[nH]1)N(Cc1cccc2[nH]ccc12)CC1CCC1`, the Activity on Pyruvate kinase PKM [1] worked out at 6.73 µM. Further, the AC50 on Pyruvate kinase PKM [2] (read-out: AC50) was determined as 0.757 µM.

Consider `CCN(Cc1ccccc1)C(=O)c1cc(Br)c[nH]1`, for which the AC50 entry on Pyruvate kinase PKM [2] is listed as “Not Active”.

`CCCN(Cc1ccccc1)C(=O)c1cc(Br)c[nH]1`: the concentration at half-maximal activity (AC50) on Pyruvate kinase PKM [2] (read-out: AC50) amounted to 6 µM.

On to `O=C(c1cc(Br)c[nH]1)N(Cc1ccccc1)CC1CC1`, for which the AC50 on Pyruvate kinase PKM [2] (read-out: AC50) was 12.2 µM.

For `N#Cc1ccc(CN(CC2CCC2)C(=O)c2cc(Br)c[nH]2)cc1`, the AC50 entry on Pyruvate kinase PKM [2] was “Not Active”.

As for `O=C(c1cc(Cl)n[nH]1)N(Cc1cccc2[nH]ncc12)CC1CCC1`, the Activity is 5.94 µM on Pyruvate kinase PKM [1] and 6.4 µM at Pyruvate kinase PKM [3]. For the same molecule, on Pyruvate kinase PKM [2] (read-out: AC50), the concentration at half-maximal activity (AC50) was 2.93 µM.

Turning to `O=C(c1cc(Br)c[nH]1)N(Cc1ccc(Cl)cc1)CC1CCC1`, the concentration at half-maximal activity (AC50) entry on Pyruvate kinase PKM [2] is on record as “Not Active”.

Consider `CCCCN(Cc1ccccc1)C(=O)c1cc(Br)c[nH]1`, for which the AC50 at Pyruvate kinase PKM [2] (read-out: AC50) worked out at 6.33 µM.

Take `N#Cc1cc(C(=O)N(Cc2ccc(O)cc2F)CC2CCC2)[nH]n1`: the concentration at half-maximal activity (AC50) on Pyruvate kinase PKM [2] (read-out: AC50) was found to be 4.47 µM.

For the molecule `O=C(c1cc(Br)n[nH]1)N(Cc1cccc2[nH]c(=O)sc12)CC1CCC1`, the Activity at Pyruvate kinase PKM [1] was 12.9 µM; on Pyruvate kinase PKM [3], 16.6 µM. Further, the AC50 at Pyruvate kinase PKM [2] (read-out: AC50) was found to be 3.05 µM.

On to `Nc1ccc(CN(CC2CCC2)C(=O)c2cc(Br)c[nH]2)cc1`, for which the AC50 result on Pyruvate kinase PKM [2] was “Not Active”.

With `O=C(c1cc(C(F)(F)F)n[nH]1)N(Cc1ccc(O)cc1F)CC1CCC1`, the Activity on Pyruvate kinase PKM [1] is 0.26 µM; at Pyruvate kinase PKM [3] it was 0.22 µM.

`O=C(c1cc(Br)n[nH]1)N(Cc1cccc2[nH]ncc12)CC1CCC1`: the AC50 on Pyruvate kinase PKM [2] (read-out: AC50) was 3.13 µM.

Turning to `O=C(c1cc(Br)c[nH]1)N(Cc1ccccc1O)CC1CCC1`, the AC50 on Pyruvate kinase PKM [2] (read-out: AC50) was 1.29 µM.

Consider `CCCCCN(Cc1ccccc1)C(=O)c1cc(Br)c[nH]1`, for which the AC50 at Pyruvate kinase PKM [2] (read-out: AC50) was determined as 4.45 µM.
